Measured values reported in US11834420B2, “Preparation method of pyrimidinylthio-benzoate oxime ester compound and application thereof as herbicide” (CHANGZHOU UNIVERSITY, priority 2019, dated 2023).

Columns and labels:
Eleusine indica = experiment: Pot experiment, indoor herbicidal activity (stem and leaf spray); assay type: in vivo; conditions: fresh weight inhibition rate, 45 g a.i/hm^2, stem and leaf spray, 21st day after applying
Protocol: (§1) 20 mg of the pyrimidinylthio-benzoate compound active pharmaceutical ingredients (APIs) is weighed with a 1/10,000 analytical balance, dissolved with acetone (or DMF or DMSO), and diluted with a 0.1% Tween-80 aqueous solution to a concentration of 45 g a.i/hm^2.
(§2) The test soil is quantitatively filled to 4/5 of the pot, and subirrigation method is adopted at a bottom of the pot to moisten the soil. The test weed seeds are sown on the soil surface and cultivated in a greenhouse. When the gramineous weeds grow to 3-4 leaf stage and broadleaf weeds grow to 4-6 leaf stage, a stem and leaf spray method is used for treatment. On the 21st day after applying the herbicide, the above-ground part is taken to weigh the fresh weight, and the fresh weight inhibition rate is calculated according to the formula. Fresh weight inhibition rate (%)=(control fresh weight−treated fresh weight)/control fresh weight×100%
(§3) Pyrithiobac-sodium is used as a positive control. The herbicidal activity of the target compound is screened. The dosage refers to the applied dosage of the pyrithiobac-sodium in the cotton field, i.e., 45 g a.i/hm^2, and the stem and leaf spray method is used for treatment.

Portulaca oleracea = experiment: as above; assay type: in vivo; conditions: fresh weight inhibition rate, 45 g a.i/hm^2, stem and leaf spray, 21st day after applying
Protocol: as §1, §2, §3

Amaranthus retroflexus = experiment: as above; assay type: in vivo; conditions: fresh weight inhibition rate, 45 g a.i/hm^2, stem and leaf spray, 21st day after applying
Protocol: as §1, §2, §3

Setaria viridis = experiment: as above; assay type: in vivo; conditions: fresh weight inhibition rate, 45 g a.i/hm^2, stem and leaf spray, 21st day after applying
Protocol: as §1, §2, §3

Chenopodium album = experiment: as above; assay type: in vivo; conditions: fresh weight inhibition rate, 45 g a.i/hm^2, stem and leaf spray, 21st day after applying
Protocol: as §1, §2, §3

Echinochloa crusgalli = experiment: as above; assay type: in vivo; conditions: fresh weight inhibition rate, 45 g a.i/hm^2, stem and leaf spray, 21st day after applying
Protocol: as §1, §2, §3

Row | Structure (SMILES) | Inhibition rate (%) Eleusine indica (Eleusine indica) | Inhibition rate (%) Portulaca oleracea (Portulaca oleracea) | Inhibition rate (%) Amaranthus retroflexus (Amaranthus retroflexus) | Inhibition rate (%) Setaria viridis (Setaria viridis) | Inhibition rate (%) Chenopodium album (Chenopodium album) | Inhibition rate (%) Echinochloa crusgalli (Echinochloa crusgalli) | melting point
1 | COc1cc(OC)nc(Sc2cccc(Cl)c2C(=O)O/N=C(\C)c2cccc(F)c2)n1 [K, (E)-1-(3-fluorophenyl)ethan-1-one O-(2-chloro-6-((4,6-dimethoxypyrimidin-2-yl)thio)benzoyl) oxime] | 92.0% | 93.3% | 100% | 72.9% | 100% | 100% | 103 to 107 °C
2 | COc1cc(OC)nc(Sc2cccc(Cl)c2C(=O)O)n1 [Pyrithiobac-sodium, reference compound] | 44.7% | 96.8% | 95.2% | 65.4% | 93.9% | 60.6% | –
3 | COc1cc(OC)nc(Sc2cccc(Cl)c2C(=O)O/N=C(\C)c2ccc(F)cc2)n1 [L, (E)-1-(4-fluorophenyl)ethan-1-one O-(2-chloro-6((4,6-dimethoxypyrimidin-2-yl)thio)benzoyl) oxime] | 87.0% | 90.5% | 100% | 75.4% | 100% | 100% | 102 to 105 °C
4 | COc1cc(OC)nc(Sc2cccc(Cl)c2C(=O)O/N=C(\C)c2ccc(C)cc2)n1 [C, (E)-1-(p-tolyl)ethan-1-one O-(2-chloro-6-((4,6-dimethoxypyrimidin-2-yl)thio)benzoyl) oxime] | 52.5% | 40.9% | 90.4% | 39.3% | 95.8% | 37.5% | 115 to 119 °C
5 | COc1cc(OC)nc(Sc2cccc(Cl)c2C(=O)O/N=C(\C)c2ccc(C(F)(F)F)cc2)n1 [F, (E)-1-(4-(trifluoromethyl)phenyl)ethan-1-one O-(2-chloro-6-((4,6-dimethoxypyrimidin-2-yl)thio)benzoyl)oxime] | 80.7% | 84.4% | 97.5% | 56.0% | 85.1% | 100% | 86 to 90 °C
6 | COc1cc(OC)nc(Sc2cccc(Cl)c2C(=O)O/N=C(\C)c2cccc(C)c2)n1 [B, (E)-1-(m-tolyl)ethan-1-one O-(2-chloro-6-((4,6-dimethoxypyrimidin-2-yl)thio)benzoyl) oxime] | 53.0% | 60.7% | 93.5% | 53.0% | 87.0% | 30.3% | 84 to 88 °C
7 | COc1cc(OC)nc(Sc2cccc(Cl)c2C(=O)O/N=C(\C)c2ccc([N+](=O)[O-])cc2)n1 [I, (E)-1-(4-nitrophenyl)ethan-1-one O-(2-chloro-6-((4,6-dimethoxypyrimidin-2-yl)thio)benzoyl)oxime] | 89.7% | 94.5% | 100% | 75.1% | 96.8% | 95.7% | 153 to 157 °C
8 | COc1ccc(/C(C)=N/OC(=O)c2c(Cl)cccc2Sc2nc(OC)cc(OC)n2)c(OC)c1 [M, (E)-1-(2,4-dimethoxyphenyl)ethan-1-one O-(2-chloro-6-((4,6-dimethoxypyrimidin-2-yl)thio)benzoyl)oxime] | 85.6% | 90.9% | 100% | 77.2% | 100% | 100% | 125 to 129 °C
9 | COc1cc(OC)nc(Sc2cccc(Cl)c2C(=O)O/N=C(\C)c2ccccc2C(F)(F)F)n1 [D, (E)-1-(2-(trifluoromethyl)phenyl)ethan-1-one O-(2-chloro-6-((4,6-dimethoxypyrimidin-2-yl)thio)benzoyl)oxime] | 52.4% | 69.2% | 80.2% | 33.7% | 89.6% | 78.3% | 82 to 85 °C
10 | COc1cc(OC)nc(Sc2cccc(Cl)c2C(=O)O/N=C(\C)c2ccccc2F)n1 [J, (E)-1-(2-fluorophenyl)ethan-1-one O-(2-chloro-6-((4,6-dimethoxypyrimidin-2-yl)thio)benzoyl) oxime] | 90.3% | 90.2% | 100% | 77.2% | 98.4% | 100% | 87 to 91 °C
11 | COc1cc(OC)nc(Sc2cccc(Cl)c2C(=O)O/N=C(\C)c2cccc(C(F)(F)F)c2)n1 [E, (E)-1-(3-(trifluoromethyl)phenyl)ethan-1-one O-(2-chloro-6-((4,6-dimethoxypyrimidin-2-yl)thio)benzoyl)oxime] | 37.0% | 64.6% | 82.4% | 27.8% | 82.4% | 79.5% | 81 to 86 °C
12 | COc1cc(OC)nc(Sc2cccc(Cl)c2C(=O)O/N=C(\C)c2ccccc2[N+](=O)[O-])n1 [G, (E)-1-(2-nitrophenyl)ethan-1-one O-(2-chloro-6-((4,6-dimethoxypyrimidin-2-yl)thio)benzoyl)oxime] | 84.6% | 89.4% | 100% | 60.3% | 95.7% | 90.4% | 130 to 134 °C
13 | COc1cc(OC)nc(Sc2cccc(Cl)c2C(=O)O/N=C(\C)c2ccccc2C)n1 [A, (E)-1-(o-tolyl)ethan-1-one O-(2-chloro-6-((4,6-dimethoxypyrimidin-2-yl)thio)benzoyl) oxime] | 67.6% | 35.4% | 92.0% | 31.3% | 100% | 35.6% | 108 to 111 °C
14 | COc1cc(OC)nc(Sc2cccc(Cl)c2C(=O)O/N=C(\C)c2cccc([N+](=O)[O-])c2)n1 [H, (E)-1-(3-nitrophenyl)ethan-1-one O-(2-chloro-6-((4,6-dimethoxypyrimidin-2-yl)thio)benzoyl)oxime] | 88.5% | 85.9% | 100% | 64.6% | 90.4% | 87.7% | 155 to 159 °C
